From article PMC6264278, “Corydaline Inhibits Multiple Cytochrome P450 and UDP-Glucuronosyltransferase Enzyme Activities in Human Liver Microsomes” (Molecules, 2011) come the findings set out here.

For data set [1], the target named is T1, CYP1A2 (Homo sapiens, UniProt P05177).
T1 construct: using pooled human liver microsomes; tissue BD Gentest Co. H161; host or cells: pooled human liver microsomes
T1 sequence (P05177 1-516): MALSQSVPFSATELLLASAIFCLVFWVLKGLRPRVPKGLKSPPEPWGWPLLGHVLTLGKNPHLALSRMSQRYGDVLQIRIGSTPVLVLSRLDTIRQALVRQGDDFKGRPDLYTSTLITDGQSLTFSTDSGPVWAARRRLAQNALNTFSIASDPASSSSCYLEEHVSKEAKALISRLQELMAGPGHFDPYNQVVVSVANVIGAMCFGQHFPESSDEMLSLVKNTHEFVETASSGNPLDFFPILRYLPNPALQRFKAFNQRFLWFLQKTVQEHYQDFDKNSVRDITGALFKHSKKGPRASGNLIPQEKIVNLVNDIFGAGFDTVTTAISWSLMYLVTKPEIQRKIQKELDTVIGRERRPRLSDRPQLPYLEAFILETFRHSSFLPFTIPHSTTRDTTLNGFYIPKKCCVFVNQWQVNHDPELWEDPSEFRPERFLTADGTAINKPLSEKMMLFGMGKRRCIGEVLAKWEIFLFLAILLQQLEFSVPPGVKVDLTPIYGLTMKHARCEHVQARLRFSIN
Briefly: CYP1A2 phenacetin O-deethylation inhibition, cocktail assay in pooled human liver microsomes. The class given is in vitro ADME. The following applies: 50 μM phenacetin, no inhibition at 200 μM of corydaline; for IC50 no preincubation, CYP1A2 phenacetin O-deethylation: pooled human liver microsomes (H161). As for the experimental part: (§1) Phenacetin O-deethylase, coumarin 7-hydroxylase, amodiaquine N-deethylase, diclofenac 4-hydroxylase, S-mephenytoin 4-hydroxylase, bufuralol hydroxylase, and midazolam 1’-hydroxylase activities were determined as probe activities for CYP1A2, CYP2A6, CYP2C8, CYP2C9, CYP2C19, CYP2D6, and CYP3A4, respectively, using cocktail incubation and liquid chromatography-tandem mass spectrometry (LC/MS/MS). The incubation mixtures were prepared in a total volume of 200 μL, as follows: pooled human liver microsomes (0.25 mg/mL), 1.3 mM NADPH, 3.3 mM MgCl2, 50 mM potassium phosphate buffer (pH 7.4), and a cocktail of probe substrates and various concentrations of corydaline (1−200 μM). The substrates were used at concentrations approximately equal to their respective Km values: 50 μM phenacetin, 2.5 μM coumarin, 2.5 μM amodiaquine, 10 μM diclofenac, 100 μM S-mephenytoin, 5 μM bufuralol, and 2.5 μM midazolam. After a 3-min pre-incubation period at 37 °C, the reactions were initiated by addition of an NADP generating system and incubated for 20 min at 37 °C in a shaking water bath. After incubation, the reaction was stopped by placement of the tubes on ice and addition of 100 μL of ice-cold methanol containing internal standards (^13C2,^15N-acetaminophen for acetaminophen and N-desethylamodiaquine, d5-7-hydroxycoumarin for 7-hydroxycoumarin, ^13C6-4-hydroxydiclofenac for 4-hydroxydiclofenac, d3-4-hydroxy-mephenytoin for 4-hydroxymephenytoin and hydroxymidazolam, d9-1-hydroxybufuralol for 1-hydroxybufuralol). The incubation mixtures were then centrifuged at 13,000 × g for 5 min. All incubations were performed in triplicate and the mean values were used. […] The reaction was started by addition of a cocktail of CYP probe substrates.
All 7 metabolites produced from the cocktail of CYP isoform-specific substrates were simultaneously determined by LC/MS/MS [25]. […] Quantification was performed by selected reaction monitoring (SRM) of the [M+H]^+ ion and the related product ion for each metabolite. […]

Data set [2] deals with T2, CYP2C9 (Homo sapiens, UniProt P11712).
T2 construct: using pooled human liver microsomes; tissue BD Gentest Co. H161; host or cells: pooled human liver microsomes
Briefly: CYP2C9 diclofenac 4-hydroxylation inhibition in pooled human liver microsomes. The following applies: for IC50: 10 μM diclofenac, mean ± SD, n = 3. The class given is in vitro ADME. How it is done: as §1
All 7 metabolites produced from the cocktail of CYP isoform-specific substrates were simultaneously determined by LC/MS/MS [25]. The system consisted of a tandem quadrupole mass spectrometer (TSQ Quantum Access, ThermoFisher Scientific, San Jose, CA, USA) coupled with a Nanospace SI-2 LC system. Separation was performed on an Atlantis dC18 column (5 μm, 2.1 mm i.d. ×100 mm, Waters, Milford, MA, USA) using the gradient elution of a mixture of 5% methanol in 0.1% formic acid (mobile phase A) and 95% methanol in 0.1% formic acid (mobile phase B) at a flow rate of 0.25 mL/min: 10% mobile phase B for 1 min, 10% to 95% mobile phase B for 1 min, 95% mobile phase B for 5 min. The column and autosampler temperatures were 50 and 6 °C, respectively. After 1.5 min, the LC eluent was diverted from waste to the mass spectrometer fitted with the electrospray ionization (ESI) source and operated in positive ion mode. […] Quantification was performed by selected reaction monitoring (SRM) of the [M+H]^+ ion and the related product ion for each metabolite. […]
Reactions were initiated by addition of NADPH at 37 °C and stopped after 15 min by placement of the incubation tubes on ice and addition of ice-cold methanol (100 μL) containing an internal standard (2.0 μg/mL ^13C6-4-hydroxydiclofenac for diclofenac, 0.5 μg/mL d3-4-hydroxymephenytoin for mephenytoin, or 0.5 μg/mL d9-1-hydroxy-bufuralol for bufuralol). The incubation mixtures were centrifuged at 13,000 × g for 5 min, and aliquots (5 μL) of the supernatants were analyzed by LC/MS/MS. […] Aliquots (5 μL) were analyzed by LC/MS/MS. […]
(In general: Liver microsomes are vesicles of endoplasmic reticulum, rich in cytochrome P450 enzymes.)

Structures are written as SMILES. Where two headings read alike, the source gives them in different places.

T2 sequence (P11712 whole entry): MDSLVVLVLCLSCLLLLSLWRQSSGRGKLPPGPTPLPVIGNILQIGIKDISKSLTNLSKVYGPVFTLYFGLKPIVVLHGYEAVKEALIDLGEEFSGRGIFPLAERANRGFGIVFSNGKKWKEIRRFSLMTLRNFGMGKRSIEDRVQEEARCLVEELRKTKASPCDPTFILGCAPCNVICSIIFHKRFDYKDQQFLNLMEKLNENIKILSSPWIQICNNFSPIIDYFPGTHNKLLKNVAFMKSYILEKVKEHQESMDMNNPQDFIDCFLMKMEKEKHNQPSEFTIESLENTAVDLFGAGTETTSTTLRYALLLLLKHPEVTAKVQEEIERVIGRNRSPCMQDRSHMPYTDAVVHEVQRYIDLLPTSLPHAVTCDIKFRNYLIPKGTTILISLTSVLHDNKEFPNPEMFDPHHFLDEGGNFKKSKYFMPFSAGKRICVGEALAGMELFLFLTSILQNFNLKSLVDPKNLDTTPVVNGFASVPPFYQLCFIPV

What is called Ki is a measure of affinity in units of concentration, obtained from inhibition or displacement. The low end stands for tighter binding, the high end for weaker binding. The term IC50 denotes the point on the concentration scale where inhibition reaches its midpoint. In the case of `COc1cc2c(cc1OC)C1C(C)c3ccc(OC)c(OC)c3CN1CC2` (centres unmarked) [Corydaline, 2,3,9,10-tetramethoxy-13-methyl-5,8,13,13a-tetrahydro-6H-isoquino[3,2-a]isoquinoline], the “IC50 no preincubation, CYP1A2 phenacetin O-deethylation” value was “negligible inhibition” in data set [1] and “No inhibition **” in data set [1] (listed as corydaline). Also, the “IC50 with preincubation, CYP1A2 phenacetin O-deethylation” value in data set [1] (pre-incubated 30 min with NADPH) was “No inhibition **”. The “inhibition mode, CYP2C9 diclofenac 4-hydroxylation” value in data set [2] (Lineweaver, Dixon and secondary reciprocal plots) is “noncompetitive”. In addition, the affinity in data set [2] (human liver microsomes, 1-10 μM diclofenac) corresponds to a Ki of 7.1 ± 0.4 µM. In addition, in data set [2] (pH 7.4, probe diclofenac (1-10 μM), 4-hydroxylation, human liver microsomes, 1-10 μM diclofenac), the Ki at 15 min came out at 7 µM. The IC50 was found to be 26.2 ± 4.6 µM in data set [2] (pooled human liver microsomes (H161), read-out: IC50 no preincubation, CYP2C9 diclofenac 4-hydroxylation) and 30.6 ± 4.1 µM in data set [2] (pre-incubated 30 min with NADPH, read-out: IC50 with preincubation, CYP2C9 diclofenac 4-hydroxylation).
